According to patent US20240076624A1, “Methods and Tools for Studying Enteroendocrine Cells” (Koninklijke Nederlandse Akademie Van Wetenschappen, priority 2020, published 2024):

Tests used:
OR51E2 [1] = biological target: T1, OR51E2 (Homo sapiens, UniProt Q9H255); assay: Calcium sensor (Tq-Ca-FLITS) response in TPH1-mClover NEUROG3-dTomato organoid; format: cell-based; conditions: for calcium flux in EECs (TPH1-negative): colon-derived reporter organoid
T1 construct: endogenous in cells; host or cells: human intestinal organoids NEUROG3-dTomato / TPH1-mClover carrying the Tq-Ca-FLITS calcium sensor, differentiated to EECs
T1 sequence (Q9H255 1-320): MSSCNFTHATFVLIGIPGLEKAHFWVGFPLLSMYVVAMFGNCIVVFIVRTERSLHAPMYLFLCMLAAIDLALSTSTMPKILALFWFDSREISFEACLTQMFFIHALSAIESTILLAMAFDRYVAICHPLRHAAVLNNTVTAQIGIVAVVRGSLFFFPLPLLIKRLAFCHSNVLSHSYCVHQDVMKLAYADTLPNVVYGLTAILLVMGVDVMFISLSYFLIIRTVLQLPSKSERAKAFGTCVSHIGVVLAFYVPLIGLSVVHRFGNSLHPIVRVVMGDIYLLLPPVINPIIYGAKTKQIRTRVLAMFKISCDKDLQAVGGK
Source text: (F) Fluorescent image of a TPH1^mClover NEUROG3^dTomato organoid that is transduced with the turquoise calcium sensor Tq-Ca-FLITS, containing a nuclear localization signal. Five examples of nuclei are highlighted of which the calcium response is followed after treatment with Beta-ionone, the agonist of OR51E2.
For example, in some embodiments, the compound is beta-ionone and the sensor is a calcium sensor. Beta-ionone is an agonist of the olfactory receptor OR51E2. The mouse homologue of OR51E2 had been reported to be expressed in mouse EECs (Fleischer et al., 2015; Jovancevic et al., 2017). However, prior to the invention, it was not known which human EECs OR51E2 is expressed in. Olfactory genes in humans and mice are very different as these genes quickly evolve. Therefore, the homology of these sequences tend to be low, and it is difficult to project expression profiles of mouse olfactory genes on humans. The inventors have found two olfactory receptors that are abundantly expressed in human EECs, OR51E1 and OR51E2. […] This provided proof-of-concept that sensors combined with hormone reporters from EEC-TAG can aid the study of functional signalling responses in human EEC subtypes. Thus, calcium reporters can be combined as a measure of hormone activation with the knowledge of the expression levels of targets such as olfactory receptors in subpopulations of EECs. Thus, the use of a reporter organoid in conjunction with a calcium reporter allows for screening for activators of targets such as cell surface receptors, e.g. olfactory receptors, and such methods are provided herein. In some embodiments, the calcium assay is conducted in an intestinal organoid which is not itself a reporter organoid and a reporter organoid is used to validate which EEC subtype the calcium is being activated in and so which hormones are being activated. […] This can be extrapolated to which EEC subtype hormone secretion is being activated in.

[2] = biological target: T2, olfactory receptor OR51E2 (Homo sapiens, UniProt Q9H255); assay: Live cell imaging of calcium reporter (Tq-Ca-FLITS) organoids; format: cell-based; conditions: NEUROG3-dTomato TPH1-mClover CaFLITS-Turquoise reporter organoids; FIG. 2F
T2 construct: endogenous in cells; host or cells: human intestinal organoids NEUROG3-dTomato / TPH1-mClover carrying the Tq-Ca-FLITS calcium sensor, differentiated to EECs
T2 sequence (Q9H255 1-320): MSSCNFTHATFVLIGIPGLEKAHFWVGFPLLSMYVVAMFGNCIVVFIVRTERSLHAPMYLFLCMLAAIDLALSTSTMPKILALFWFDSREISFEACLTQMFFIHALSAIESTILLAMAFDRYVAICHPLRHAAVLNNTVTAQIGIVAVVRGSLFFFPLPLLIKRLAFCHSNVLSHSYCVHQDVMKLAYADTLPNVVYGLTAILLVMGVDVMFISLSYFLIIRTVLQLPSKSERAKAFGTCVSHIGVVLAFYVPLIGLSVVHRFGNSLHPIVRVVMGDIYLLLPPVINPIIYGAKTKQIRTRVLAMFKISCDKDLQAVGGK
Method: A red calcium probe (pTorPE-R-GECO1, addgene plasmid #32465) was used as a template to engineer a cyan genetically encoded calcium probe. The cpApple was replaced with a circular permuted mTurquoise. The resulting probe was dubbed Tq-Ca-FLITS (Turquoise Calcium Fluorescence Lifetime Indicator for Truthful Sensing). A triple nuclear localization signal (3×nls) was added to the N-terminus of the calcium probe to simplify analysis. Details of the engineering and characterization will be described elsewhere (Van der Linden et al., in preparation).
PCRs were performed on Tq-Ca-FLITS (Fw […]atgggatcagatccaaaaaagaagag, Rev […]c[…]) as well as H2B-mMaroon (Fw […], Rev […]attaagtttgtgcccc) and the two PCRs were cloned into a lentiviral vector using InPhusion Cloning (Takara), to produce H2B-mMaroon-P2A-Tq-Ca-FLITS, two simultaneously expressed cistrons separated by a de-optimized P2A (Lo et al., 2015).
H2B-mMaroon-P2A-Tq-Ca-FLITS organoids were imaged on a Leica SP8 confocal laser scanning microscope, equipped with Argon laser and White Light Laser, the latter allowing spectral flexibility for optimal visualization of all fluorophores. […]

OR51E2 [3] = biological target: T1, OR51E2; conditions: HEK cells after overexpression of OR51E2 (Pietraszewska-Bogiel et al., 2019); cited from earlier work
MLK-7K = conditions: target MLK-7K; cited from earlier work
[4] = system: enteroendocrine cell differentiated organoids; assay: Hormone expression in EEC differentiated organoids treated with Midkine; format: cell-based, human

Molecule: CC(=O)/C=C/C1=C(C)CCCC1(C)C [Beta-ionone]
- calcium flux in non-EEC (OR51E2 [1]): does not show calcium increases
- calcium flux in EECs (TPH1-negative) (OR51E2 [1]): increases in calcium flux
- calcium flux in EECs (TPH1-negative) (OR51E2 [1]; listed as beta-ionone): calcium sparking
- calcium reporter response in EECs [2]: calcium sparking in EECs that were TPH1-negative
- calcium response (OR51E2 [3]): elicit a calcium response

Molecule: c1ccc(-c2n[nH]cc2-c2ccnc3ccccc23)nc1 [LY-36494, 4-[3-(2-Pyridinyl)-1H-pyrazol-4-yl]-quinoline]
- IC50 (MLK-7K): 1.4 µM

B1: Midkine: heparin-binding growth factor, cytokine; sequence SEQ ID NO:69 (protein, listed as Homo sapiens)
chain: VAKKKDKVKKGGPGSECAEWAWGPCTPSSKDCGVGFREGTCGAQTQRIRCRVPCNWKKEFGADCKYKFENWGACDGGTGTKVRQGTLKKARYNAQCQETIRVTKPCTPKTKAKAKAKKGKGKD
- expression of EEC hormones [4]: reduces the expression of all hormones
